Results reported in the supplement of paper PMC7017272.
± gives the standard deviation of the averaged measurements.

Assays:
UT-SCC-24A [1] = assay: drug sensitivity score (DSS); higher = more sensitive; conditions: treatment time: 3 days
Procedure: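 HNSCC cell lines (500 cells/well, 384-well) were cultured on plastic, on top of (2D) or embedded (3D) in Matrigel or human leiomyoma matrix Myogel (500 ug/mL; Myogel 3D mixed with rat collagen I). Cells were treated for 3 days with 5 ten-fold concentrations of each drug, and viability was read by CellTiter-Glo. Suffixes _1/_2/_3 on drug names are replicates.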

UT-SCC-106A = assay: maximal % inhibition of viability relative to DMSO; higher = stronger effect; conditions: treatment time: 3 days
Procedure: (§1)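 HNSCC cell lines (500 cells/well, 384-well) were cultured on plastic, on top of (2D) or embedded (3D) in Matrigel or human leiomyoma matrix Myogel (500 ug/mL; Myogel 3D mixed with rat collagen I). Cells were treated for 3 days with 5 ten-fold concentrations of each drug, and viability was read by CellTiter-Glo. Viability was normalised to DMSO and benzethonium chloride controls and fitted with the FIMM DSRT pipeline to give IC50 (nM), maximal % inhibition and DSS. Suffixes _1/_2/_3 are replicates. Only inhibition-mode (IC50) fits are kept.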

UT-SCC-14 = assay: as above; conditions: treatment time: 3 days
Procedure: as §1

UT-SCC-24B [2] = assay: as above; conditions: treatment time: 3 days
Procedure: as §1

UT-SCC-28 [3] = assay: as above; conditions: treatment time: 3 days
Procedure: as §1

UT-SCC-40 [4] = assay: as above; conditions: treatment time: 3 days
Procedure: as §1

UT-SCC-42A = assay: as above; conditions: treatment time: 3 days
Procedure: as §1

UT-SCC-42B = assay: as above; conditions: treatment time: 3 days
Procedure: as §1

UT-SCC-44 = assay: as above; conditions: treatment time: 3 days
Procedure: as §1

UT-SCC-73 = assay: as above; conditions: treatment time: 3 days
Procedure: as §1

UT-SCC-81 = assay: as above; conditions: treatment time: 3 days
Procedure: as §1

UT-SCC-8 = assay: as above; conditions: treatment time: 3 days
Procedure: as §1

UT-SCC-24A [5] = assay: as above; conditions: treatment time: 3 days
Procedure: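 HNSCC cell lines (500 cells/well, 384-well) were cultured on plastic, on top of (2D) or embedded (3D) in Matrigel or human leiomyoma matrix Myogel (500 ug/mL; Myogel 3D mixed with rat collagen I). Cells were treated for 3 days with 5 ten-fold concentrations of each drug, and viability was read by CellTiter-Glo. Viability was normalised to DMSO (0% inhibition) and 100 uM benzethonium chloride (100% inhibition) controls and fitted with the FIMM DSRT pipeline to give IC50 (nM), maximal % inhibition and the drug sensitivity score (DSS). Suffixes _1/_2/_3 on drug names are replicates.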

UT-SCC-24B [6] = assay: relative IC50 (midpoint of the fitted curve; maximal inhibition may be below 50%); higher = less potent; conditions: treatment time: 3 days
Procedure, shortened: (§2)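 Viability was read with CellTiter-Glo 2.0 luminescence and scaled against vehicle (0.1% DMSO) and cell-killing control wells. The assay used HPV-negative HNSCC cell lines at 500 cells/well in 384-well plates, grown on plastic, on Matrigel or Myogel coatings (500 µg/mL), or embedded in Matrigel or Myogel plus rat collagen I, and treated for 3 days at five 10-fold concentrations. IC50, maximal inhibition and drug sensitivity score were derived from percent-inhibition dose–response curves fitted in the FIMM pipeline.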

UT-SCC-28 [7] = assay: as above; conditions: treatment time: 3 days
Procedure, shortened: as §2

UT-SCC-40 [8] = assay: as above; conditions: culture condition: plastic 2D (no matrix); treatment time: 3 days
Procedure, shortened: as §2

[9] = culture condition: embedded in Matrigel
[10] = culture condition: embedded in Myogel + collagen I
[11] = culture condition: on top of Matrigel
[12] = culture condition: on top of Myogel
[13] = culture condition: plastic 2D (no matrix)

CO[C@H]1C[C@@H]2CC[C@@H](C)[C@@](O)(O2)C(=O)C(=O)N2CCCC[C@H]2C(=O)O[C@H]([C@H](C)C[C@@H]2CC[C@@H](O)[C@H](OC)C2)CC(=O)[C@H](C)/C=C(\C)[C@@H](O)[C@@H](OC)C(=O)[C@H](C)C[C@H](C)/C=C/C=C/C=C/1C [Sirolimus]
drug sensitivity score (UT-SCC-24A [1]; [9]): 9 ± 4.9 DSS | drug sensitivity score (UT-SCC-24A [1]; [10]): 16.4 ± 1.2 DSS | drug sensitivity score (UT-SCC-24A [1]; [11]): 12.7 ± 3.7 DSS | drug sensitivity score (UT-SCC-24A [1]; [12]): 13.7 ± 1.2 DSS | drug sensitivity score (UT-SCC-24A [1]; [13]): 12.9 ± 2.5 DSS | maximal % inhibition of viability (UT-SCC-106A; [9]): 53.1 ± 13% | maximal % inhibition of viability (UT-SCC-106A; [10]): 35.2 ± 3% | maximal % inhibition of viability (UT-SCC-106A; [11]): 52.9 ± 3.1% | maximal % inhibition of viability (UT-SCC-106A; [12]): 41.1 ± 1.3% | maximal % inhibition of viability (UT-SCC-106A; [13]): 57.3 ± 2.8% | maximal % inhibition of viability (UT-SCC-14; [9]): 73.1 ± 6.3% | maximal % inhibition of viability (UT-SCC-14; [10]): 60.2 ± 7.8% | maximal % inhibition of viability (UT-SCC-14; [11]): 70.8 ± 8.7% | maximal % inhibition of viability (UT-SCC-14; [12]): 66.2 ± 9% | maximal % inhibition of viability (UT-SCC-14; [13]): 64.4 ± 6.4% | maximal % inhibition of viability (UT-SCC-24B [2]; [9]): 93.17 ± 0.71% | maximal % inhibition of viability (UT-SCC-24B [2]; [10]): 93.9 ± 1.8% | maximal % inhibition of viability (UT-SCC-24B [2]; [11]): 91.5 ± 0.2% | maximal % inhibition of viability (UT-SCC-24B [2]; [12]): 91.1 ± 2.1% | maximal % inhibition of viability (UT-SCC-24B [2]; [13]): 90.4 ± 1.4% | maximal % inhibition of viability (UT-SCC-28 [3]; [9]): 35 ± 13% | maximal % inhibition of viability (UT-SCC-28 [3]; [10]): 57.3 ± 1.4% | maximal % inhibition of viability (UT-SCC-28 [3]; [11]): 43.7 ± 4.2% | maximal % inhibition of viability (UT-SCC-28 [3]; [13]): 34.8 ± 4.6% | maximal % inhibition of viability (UT-SCC-40 [4]; [9]): 91.7 ± 5% | maximal % inhibition of viability (UT-SCC-40 [4]; [10]): 92 ± 2% | maximal % inhibition of viability (UT-SCC-40 [4]; [11]): 86.8 ± 0.91% | maximal % inhibition of viability (UT-SCC-40 [4]; [12]): 75.6 ± 0.97% | maximal % inhibition of viability (UT-SCC-40 [4]; [13]): 79.1 ± 2.9% | maximal % inhibition of viability (UT-SCC-42A; [9]): 66.8 ± 8.8% | maximal % inhibition of viability (UT-SCC-42A; [10]): 52.5 ± 2.1% | maximal % inhibition of viability (UT-SCC-42A; [11]): 64.7 ± 1.1% | maximal % inhibition of viability (UT-SCC-42A; [12]): 61.33 ± 0.42% | maximal % inhibition of viability (UT-SCC-42A; [13]): 55.5 ± 0.36% | maximal % inhibition of viability (UT-SCC-42B; [9]): 85 ± 3.7% | maximal % inhibition of viability (UT-SCC-42B; [11]): 76.5 ± 1.4% | maximal % inhibition of viability (UT-SCC-42B; [12]): 76.5 ± 1.6% | maximal % inhibition of viability (UT-SCC-42B; [13]): 74.1 ± 2.6% | maximal % inhibition of viability (UT-SCC-44; [9]): 48.7 ± 9.5% | maximal % inhibition of viability (UT-SCC-44; [10]): 72.6 ± 1.9% | maximal % inhibition of viability (UT-SCC-44; [11]): 61 ± 2.4% | maximal % inhibition of viability (UT-SCC-44; [12]): 72.5 ± 1.7% | maximal % inhibition of viability (UT-SCC-44; [13]): 72.3 ± 3.1% | maximal % inhibition of viability (UT-SCC-73; [9]): 84.6 ± 1.5% | maximal % inhibition of viability (UT-SCC-73; [10]): 78.8 ± 4.7% | maximal % inhibition of viability (UT-SCC-73; [11]): 83.3 ± 2.9% | maximal % inhibition of viability (UT-SCC-73; [12]): 80.27 ± 0.76% | maximal % inhibition of viability (UT-SCC-73; [13]): 79.8 ± 1.5% | maximal % inhibition of viability (UT-SCC-81; [9]): 89.7 ± 3.3% | maximal % inhibition of viability (UT-SCC-81; [10]): 80 ± 4.9% | maximal % inhibition of viability (UT-SCC-81; [11]): 82.1 ± 1.4% | maximal % inhibition of viability (UT-SCC-81; [12]): 77.3 ± 1.9% | maximal % inhibition of viability (UT-SCC-81; [13]): 78.8 ± 3.2% | maximal % inhibition of viability (UT-SCC-8; [9]): 96.37 ± 0.95% | maximal % inhibition of viability (UT-SCC-8; [10]): 94.2 ± 1.6% | maximal % inhibition of viability (UT-SCC-8; [11]): 95.77 ± 0.31% | maximal % inhibition of viability (UT-SCC-8; [12]): 94.7 ± 0.35% | maximal % inhibition of viability (UT-SCC-8; [13]): 95.07 ± 0.45% | maximal % inhibition of viability (UT-SCC-24A [5]; [9]): 69 ± 4.9% | maximal % inhibition of viability (UT-SCC-24A [5]; [10]): 77.4 ± 8.1% | maximal % inhibition of viability (UT-SCC-24A [5]; [11]): 71.57 ± 0.55% | maximal % inhibition of viability (UT-SCC-24A [5]; [12]): 65.5 ± 2.4% | maximal % inhibition of viability (UT-SCC-24A [5]; [13]): 67.9 ± 2.4% | relative IC50 (UT-SCC-24B [6]; [9]): 0.965 nM | relative IC50 (UT-SCC-24B [6]; [12]): 2.6 nM | relative IC50 (UT-SCC-24B [6]; [13]): 2.95 nM | relative IC50 (UT-SCC-28 [7]; [9]): 2.04 nM | relative IC50 (UT-SCC-28 [7]; [11]): 1.16 nM | relative IC50 (UT-SCC-28 [7]; [13]): 1.2 nM | relative IC50 (UT-SCC-40 [8]): > 98.9 nM
